Like-named read-outs stand apart in the source and are kept apart here.
What was measured:
[1] = tested on: E15 cells; assay: Qdot peptide complex labeling, flow cytometry; assay type: cell-based, human
Description: (§1) FIG. 6. Selectivity of Qdot peptide complexes. Embryonic progenitor cell lines were labeled with Qdot complexes in their corresponding growth media and analyzed by flow cytometry as in (FIG. 5C). Percentage of labeled cells was calculated by setting up gates (allowing up to 1%) using the progenitor cell line labeled with untargeted Qdots and unlabeled cells. 10,000 events were recorded for each sample. Values are from triplicate experiments and shown as mean+/−standard error.
(§2) For flow cytometric analysis of labeled cells, cells were removed from the plates using TrypLE for 5 min at 37° C. Cells were resuspended in PBS, passed through strain top tubes and analyzed using flow cytometer. Control samples included unlabeled cells and cells labeled with untargeted Qdots. For each sample, 10,000 events were quantified. The LSRFortessa flow cytometer (BD Biosciences) was used with a violet laser excitation at 405 nm with a 605/23 bandpass filter to detect Qdot605 and the yellow laser excitation at 561 nm with a 670/30 bandpass filter to detect Qdot655. Cell autofluorescence was detected with the blue laser excited at 488 nm and a 510/25 bandpass filter.
(§3) 2 μM of Qdot Streptavidin conjugate (Qdot605 ITK SA, Invitrogen, Q10001MP) were diluted in 100 μl of binding buffer (supplied with Qdot605 ITK SA) and incubated with 100-fold excess of biotinylated peptide on ice for 1 h. Uncoupled biotinylated peptide was removed from the mixture by incubating it with streptavidin magnetic beads equilibrated in PBS on ice for 30 min; placing the mixture on a magnetic stand to separate the beads and removed the complexes in solution. SA-beads were washed with PBS and combined with the recovered complexes. For control reactions, Qdots were incubated with binding buffer and treated in similar way as the peptide complexes. The concentration of Qdot-peptide complexes was estimated based on the final volume recovered. To label cells with the Qdot-complexes, 100,000 cells were plated on gelatin-coated wells of 24 well plates were incubated for 6 hours; 5 nM of Qdot-peptides in growth media was added to the cells and incubated for 16 h at 37° C. Cells were imaged after washes with PBS to remove the unbound Qdot-complexes.

[2] = tested on: 7PEND24 cell line; assay: Qdot peptide complex labeling, flow cytometry; assay type: cell-based, human; conditions: for cell labeling by peptide Qdot complexes: 7PEND24, in words
Description: as §1, §2, §3

[3] = tested on: 4D20.8 cells; assay: Qdot peptide complex labeling, flow cytometry; assay type: cell-based, human
Description: as §1, §2, §3

[4] = tested on: hPS cells grown under mesoderm differentiation conditions; assay: Peptide targeted Qdot labeling of differentiating hPS cells; assay type: cell-based, human; conditions: 5 nM, 16 h at 37° C.
Description: (§4) FIG. 7A and FIG. 7B. Labeling of a differentiating pluripotent stem cells using peptide targeted Qdots. FIG. 7A: Selective peptide targeting of human embryonic stem cells (H9) that were differentiated into the three germ layers (see methods for protocols) for 6-8 days compared to undifferentiated control. Differentiated cells were incubated for 16 h at 37° C. with 5 nM of Qdot complexes, washed and imaged using a fluorescence microscope. Representative bright-field and fluorescent signal of W10 peptide Qdot complexes (red) are shown. FIG. 7B: Cells were stained with the following differentiation markers to verify the germ layer commitment: nestin for ectoderm, α-actinin for mesoderm, SOX17 for endoderm conditions and OCT3/4 for undifferentiated cells.
as §3
(§5) For ectoderm differentiation conditions, embryoid bodies (EBs) were formed from colonies by manual techniques and grown in complete NPC media (DMEM-F12:Neurobasal media 1:1+50 μl/ml BIT9500 Serum substitute (Stemgent)+1% GlutaMax+1% penicillin-streptomycin+1 μl/ml B27 supplement (Invitrogen)+5 mM nicotinamide+5 μg/ml insulin+20 ng/ml EGF+20 ng/ml bFGF) in low attachment plates for 6 days; EBs were then plated on fibronectin-coated wells and grown for another 3 days. For mesoderm differentiation conditions, EBs were cultured as above except that media was DMEM-F12 with GlutaMax+20% FBS+1% NEAA+1% penicillin-streptomycin, and plated on 0.1% gelatin-coated wells. For endodermal differentiation conditions, undifferentiated H9 cells were transferred from colonies growing with MEFs to Geltrex™ (Life Technologies, Grand Island, N.Y.)-coated wells and grown for 2 days with MEF-conditioned media+4 ng/ml bFGF. From day 2, cells were grown for another 5 days in RPMI+0.5% FBS+100 ng/ml Activin A.

[5] = tested on: hPS cells differentiated using culture conditions for definitive endoderm; assay: as above; assay type: cell-based, human; conditions: definitive endoderm conditions (high activin A, low serum); 5 nM, 16 h at 37° C.
Description: as §4, §3, §5

[6] = tested on: W10 cells; assay: Peptide competition for phage binding; design: species or system human; conditions: for competition of the 2 peptides with each other for W10 cell binding: data not shown; for specificity of binding (lack of competition with scrambled peptides): free peptide against scrambled peptide
Description: Cells were plated at 100,000 cells/well in 24 well plates and incubated overnight. The corresponding synthetic peptide for each peptide phage or control peptides (unrelated or scrambled sequence peptide) were pre-incubated with cells at 5 nM or 5 μM in W10 growth media supplemented with 2% BSA for 30 min at 4° C. Peptide phages at 2×10^10 pfu/well were added to the peptide dilution and incubated with live cells for 1 h at 4° C. Peptide phage bound to cells was detected by immunostaining and fluorescence microscopy using anti-phage antibody on fixed and permeabilized cells or quantified by titration of phages recovered from cell lysates. The percentage of recovered phage for the competition assay was normalized by the recovered phage in the no-peptide control. Duplicate independent experiments were performed for competition experiments.

[7] = tested on: W10 progenitor cell line; assay: Immunofluorescent staining of bound phage; assay type: binding, human; conditions: peptide display phage, 2×10^10 pfu/well, live cells, 2 h at 37° C.
Description: The binding specificity of selected phages was determined by immunofluorescent staining of bound phage to the surface of W10 progenitor cell line. Cells were plated at 100,000 cells/well in 24 well plates and incubated overnight. Phages at 2×10^10 pfu/well were diluted in 0.5 ml of W10 growth media supplemented with 2% BSA and incubated with live cells for 2 h at 37° C. Cells were washed as for the selection experiments and fixed by 4% paraformaldehyde for 20 min at RT. Cells were washed twice with PBS and permeabilized by ice-cold MeOH for 15 min on ice. After another two washes, cells were blocked with 5% goat serum in 2% BSA in PBS for 1 h at RT or overnight at 4° C. Cells were incubated with 1:700 dilution of rabbit anti-Fd bacteriophage antibody (Sigma, B7786) in 2% BSA in PBS for 1 h at RT. Cells were washed with 2 ml of 1% BSA in PBS three times, and incubated with 1:1000 dilution of goat anti-rabbit AlexaFluor568 conjugated antibody (Invitrogen, A11011) in 1% BSA in PBS for 1 h at RT. Cells were counterstained with DAPI at 0.1 μg/ml after final washes and photographed by an Olympus IX71 fluorescence microscope. Images were taken and processed using MetaMorph (version 7.5.6.0, Molecular Devices), ImageJ (version 1.45b, National Institute of Health) or Photoshop (version 9.0.2, Adobe) software.

[8] = tested on: somatic cells; conditions: cited from earlier work
[9] = tested on: W10 cells; assay: Cell labeling with peptide targeted Qdot complexes (microscopy, flow cytometry); assay type: cell-based, human
Description: as §2
2 μM of Qdot Streptavidin conjugate (Qdot605 ITK SA, Invitrogen, Q10001MP) were diluted in 100 μl of binding buffer (supplied with Qdot605 ITK SA) and incubated with 100-fold excess of biotinylated peptide on ice for 1 h. Uncoupled biotinylated peptide was removed from the mixture by incubating it with streptavidin magnetic beads equilibrated in PBS on ice for 30 min; placing the mixture on a magnetic stand to separate the beads and removed the complexes in solution. SA-beads were washed with PBS and combined with the recovered complexes. For control reactions, Qdots were incubated with binding buffer and treated in similar way as the peptide complexes. […]

[10] = tested on: 10 embryonic progenitor cell lines; assay: Selectivity of Qdot peptide complexes, panel of progenitor lines; assay type: cell-based, human; conditions: out of the 10 lines; peptide targeted Qdots, flow cytometry
Description: as §1, §2
2 μM of Qdot Streptavidin conjugate (Qdot605 ITK SA, Invitrogen, Q10001MP) were diluted in 100 μl of binding buffer (supplied with Qdot605 ITK SA) and incubated with 100-fold excess of biotinylated peptide on ice for 1 h. […]

[11] = tested on: MW1 cell line; assay: Qdot peptide complex labeling, flow cytometry; assay type: cell-based, human
Description: as §1, §2, §3

[12] = tested on: SM30 cell line; assay: Qdot peptide complex labeling, flow cytometry; assay type: cell-based, human
Description: as §1, §2, §3

Compound	cell labeling by peptide Qdot complexes [1]	cell labeling by peptide Qdot complexes [2]	cell labeling by peptide Qdot complexes [3]	cell labeling by Qdot complexes [4]	cell labeling by Qdot complexes [5]	competition of the 2 peptides with each other for W10 cell binding [6]	specificity of binding (lack of competition with scrambled peptides) [6]	binding of peptide phage detected by immunocytochemical staining [7]	other results
GWVIDYDYYPMR (FROM PHAGE DISPLAY LIBRARY) [W10 R2 11, W10 selected 12-mer; tested as M13 display phage, C-terminal biotinylated free peptide and streptavidin Qdot complex]	very little labeling	high percentage binding	very little labeling	a few small patches of labeled cells	a high percentage of cells were labeled	can compete with each other	sequence specific	strongest binding	–
O=C(NCc1ccccc1)c1csc(Nc2ccncn2)n1 [Thiazovivin]	–	–	–	–	–	–	–	–	increase of reprogramming efficiency ([8]; Thiazovivin with the two previous chemicals (SB431412, PD0325901)): 200 fold
GWYWETPLDMFN (FROM PHAGE DISPLAY LIBRARY) [W10 R2 21, W10 selected 12-mer; tested as M13 display phage, C-terminal biotinylated free peptide and streptavidin Qdot complex]	very little labeling	high percentage binding	very little labeling	a few small patches of labeled cells	a high percentage of cells were labeled	can compete with each other	sequence specific	strongest binding	competition for peptide phage binding (recovered phage, percentage of no-peptide control) ([6]; C-terminal biotinylated free peptide at 5 nM or 5 μM, 4° C.): only significant at 5 μM
DWLWSFAPNVDT (FROM PHAGE DISPLAY LIBRARY) [W10 R3 18, W10 selected 12-mer; tested as M13 display phage, C-terminal biotinylated free peptide and streptavidin Qdot complex]	–	–	–	a few small patches of labeled cells	a high percentage of cells were labeled	–	sequence specific	strongest binding	percentage of cells labeled with peptide-Qdot complexes ([9]; 5 nM Qdot complexes, 16 h at 37° C., gated on untargeted Qdots): 90%; fluorescent shift of labeled cells ([9]; compared to untargeted Qdots): strong fluorescent shift; number of embryonic progenitor cell lines with a high percentage of cells bound [10]: 7
CCCC(CCC)C(=O)O [valproic acid]	–	–	–	–	–	–	–	–	increase of reprogramming efficiency ([8]; compared to Yamanaka's traditional transcription factor method): 100 fold
YEFDNLLNRTLW (FROM PHAGE DISPLAY LIBRARY) [W10 R2 1, W10 selected 12-mer; tested as M13 display phage, C-terminal biotinylated free peptide and streptavidin Qdot complex]	no complex uptake	–	no complex uptake	no labeling	highly restricted to a small percentage of cells	–	–	strongest binding	cell labeling [11]: more than 15%; cell labeling [12]: more than 15%; cell labeling ([2]; 7PEND24): more than 15%
